Like-named read-outs stand apart in the source and are kept apart here. Ends that are not written are not given here. Peptide text beside a SMILES is read from it.
Biological target: HLA A*02:01 class I molecules (Homo sapiens, UniProt P04439, D140Y/D185E/D98H/E176V/E277Q/G131W/G231S/I119V/I121R/I166T/I218V/L300P/L318F/N151K/N90K/P208A/P217A/Q86G/Q94H/R138H/R169H/T345S)
Assay: MHC-peptide competitive binding assay
[1] = as standard assay but excluding protease inhibitors
[2] = reducing conditions, 1 mM 2-ME added
[3] = IC50 2-ME, reducing conditions, 1 mM 2-ME added
[4] = IC50 No Protease Inhibitors, as standard assay but excluding protease inhibitors

Compound	IC50 No Protease Inhibitors [1]	IC50 2-ME [2]	IC50 [nM]	IC50 [3] [nM]	IC50 [4] [nM]
1LBETBLIV	14 ng/mL	24 ng/mL			
CC[C@H](C)[C@H](N)C(=O)N[C@@H](CC(C)C)C(=O)N[C@@H](CS)C(=O)N[C@@H](CCC(=O)O)C(=O)N[C@H](C(=O)N[C@@H](CS)C(=O)N[C@@H](CC(C)C)C(=O)N[C@H](C(=O)N[C@H](C(=O)O)C(C)C)[C@@H](C)CC)[C@@H](C)O [reference compound] (H-ILCETCLIV-OH)			458	304	323
CC[C@H](C)[C@H](N)C(=O)N[C@@H](CC(C)C)C(=O)N[C@@H](CS)C(=O)NCC(=O)N[C@H](C(=O)N[C@@H](CS)C(=O)N[C@@H](CC(C)C)C(=O)N[C@H](C(=O)N[C@H](C(=O)O)C(C)C)[C@@H](C)CC)[C@@H](C)O [reference compound] (H-ILCGTCLIV-OH)			206	244	582
ACDPHSGHFV [reference compound]				12600	3090
BISSBNPNL	604 ng/mL	1,260 ng/ml			
BISSBNPNP	17,100 ng/ml	13,400 ng/ml			
BISSCNPNL	573 ng/mL	250 ng/mL			
BQWGRLWQL	121 ng/mL	93 ng/mL			
CISSBNPNL	1,047 ng/ml	618 ng/mL			
CQWGRLWQL [reference compound]			1200	130	952
HMTEVVRRC [reference compound]			9010	907	1010
ILBETCLIV	58 ng/mL	82 ng/mL			
ILBGTBLIV	733 ng/mL	1,547 ng/ml			
ILCETBLIV	104 ng/mL	93 ng/mL			
ILCGTBLIV	839 ng/mL	885 ng/mL			
RLPRIFBSB	7.2 ng/mL	14 ng/mL			
RLPRIFCSB	11 ng/mL	27 ng/mL			
SCSRAIPQV [reference compound]			1530	207	551
SCSRAVPQV [reference compound]			12300	2480	7350
SLLMWITQB	94 ng/mL				
VLPDVFIRB	3.3 ng/mL	2.5 ng/mL			
VLPDVFIRC [reference compound]			454	30.2	121

— publication PMC7413297 (Journal of immunology (Baltimore, Md. : 1950), 2020)
